Experimental findings from US11559538B2, “Substituted 1,2-oxaborolan-2-ols as PDE4 inhibitors” (Pfizer Inc., priority 2018, dated 2023) are described below.

Like-named read-outs stand apart in the source and are kept apart here.

The subject of one assay is IL-13. Kind of assay: Cytokine assay: IL-13 release from PHA-L stimulated human PBMCs. The assay is classed as cell-based. The note with it: read-out: IL13 IC50. In a few lines:
(§1)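 Human peripheral blood mononuclear cells are pre-exposed to test compound, then activated with the T-cell mitogen PHA-L (3.5 μg/mL in the well). After two days of culture at 37° C, supernatant cytokine levels are quantified by HTRF. Potency is expressed as IC50.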

The target in assay [1] is PDE4B (aa 152-484, Uniprot ID Q07343) (Homo sapiens (Human), UniProt Q07343). The assay can be described thus: PDE4 SPA assay (scintillation proximity assay). The note with it: read-out: PDE4B2 IC50. The assay is classed as biochemical. The procedure:
Phosphodiesterase (PDE) activity is determined by measuring the effect of a test agent on the activity of the PDE4B enzyme in a scintillation proximity assay (SPA). At the time of assay, approximately 30 μL of PDE4B (aa 152-484, Uniprot ID Q07343) in 50 mM Tris pH 7.5, 1.3 mM MgC2, 0.004% Brij 35 is added to a 384 well white clear bottom polystyrene plate (Corning) containing 1 μL of varying concentrations of test compound. After −10 minutes at room temperature (RT; 21° C.), the assay is initiated by the addition of 20 μL of a mixture of ^3H-labeled (adenosine 3′, 5′-cyclic phosphate, ammonium salt, [2,8-^3H]; Perkin Elmer) and unlabeled cAMP. The final assay conditions are approximately 81.6 pM PDE4B in 50 mM Tris pH 7.5, 1.3 mM MgCl2, 0.004% Brij 35, 1 μM ^3H-labeled/unlabeled cAMP (1425 dpm/pmol) and the indicated final concentration of test compound (approximately 10 μM to […] by 4-fold dilution). The final concentration of DMSO in the assay is approximately 2.0%. After 30 minutes at RT, the assay is terminated by the addition of approximately 20 μL of an aqueous solution of PDE YSI SPA beads (8 mg/mL in water; Perkin Elmer). The beads are allowed to settle for at least 2 hours and the plate is then counted on a MicroBeta2 (Perkin Elmer). The concentrations and resulting effect values for the tested compound are plotted and the concentration of compound required for 50% effect (IC50) is determined with a four-parameter logistic dose response equation (E-WorkBook, ID Business Solutions Ltd.) and shown in Table 17.
(SPA uses beads or plates that emit light when radiolabelled molecules are held near them.)

A further assay has as its system IFNγ. The assay can be described thus: Cytokine assay: IFNγ release from PHA-L stimulated human PBMCs. The format is cell-based. In a few lines:
as §1

Another assay concerns IL-4. Kind of assay: Cytokine assay: IL-4 release from PHA-L stimulated human PBMCs. The assay is classed as cell-based. As to conditions: read-out: IL4 IC50. The method, boiled down:
as §1

Sequence of PDE4B (aa 152-484, Uniprot ID Q07343) (Q07343 324-656): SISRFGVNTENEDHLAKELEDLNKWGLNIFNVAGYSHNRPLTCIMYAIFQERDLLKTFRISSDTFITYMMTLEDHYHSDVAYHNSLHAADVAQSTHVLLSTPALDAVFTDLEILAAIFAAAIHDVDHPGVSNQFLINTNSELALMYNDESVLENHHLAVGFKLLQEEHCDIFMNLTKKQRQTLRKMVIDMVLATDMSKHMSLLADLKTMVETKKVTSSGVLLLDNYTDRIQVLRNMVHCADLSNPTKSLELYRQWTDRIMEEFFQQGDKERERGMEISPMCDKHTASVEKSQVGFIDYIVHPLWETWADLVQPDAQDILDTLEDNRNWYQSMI

One may read the IC50 as the midpoint of a concentration-inhibition curve. For the molecule `CCOc1cc(-c2cncc(C3COB(O)C3)c2C(F)F)ccc1OC` (single isomer, unassigned) [Example 139, 4-(4-(difluoromethyl)-5-(3-ethoxy-4-methoxyphenyl)pyridin-3-yl)-1,2-oxaborolan-2-ol], the IC50 in the assay on IL-13 is 788 nM; in assay [1] it was 0.25 nM; in the assay on IFNγ, 0.4 nM; in the assay on IL-4 it was 0.78 nM.

In the case of `CCOc1cc(-c2cncc(C3COB(O)C3)c2C(F)F)ccc1OC` (single isomer, unassigned) [Example 140, 4-(4-(difluoromethyl)-5-(3-ethoxy-4-methoxyphenyl)pyridin-3-yl)-1,2-oxaborolan-2-ol], the IC50 was determined as 3450 nM in the assay on IL-13, 2.7 nM in assay [1], 3.2 nM in the assay with IFNγ and 3.47 nM with IL-4.

In the case of `CCOc1cc(-c2cncc(C3COB(O)C3)c2C)c(F)cc1OC` (single isomer, unassigned) [Example 142, 4-(5-(5-ethoxy-2-fluoro-4-methoxyphenyl)-4-methylpyridin-3-yl)-1,2-oxaborolan-2-ol], the IC50 in the assay with IL-13 (Homo sapiens, PBMC) came to 1040 nM; in assay [1], 2.53 nM; in the assay on IFNγ (Homo sapiens, PBMC), 2.04 nM; in the assay on IL-4 (Homo sapiens, PBMC), 4.5 nM.

On to `CCOc1cc(-c2cncc(C3COB(O)C3)c2C)c(F)cc1OC` (single isomer, unassigned) [Example 143, 4-(5-(5-ethoxy-2-fluoro-4-methoxyphenyl)-4-methylpyridin-3-yl)-1,2-oxaborolan-2-ol], for which the 50% inhibitory concentration (IC50) is 1160 nM in the assay with IL-13, 2.71 nM in assay [1], 3.68 nM in the assay on IFNγ and 4.11 nM with IL-4.

On to `CCCOc1cccc(-c2cncc(C3COB(O)C3)c2)c1` (single isomer, unassigned) [Example 146, 4-(5-(3-propoxyphenyl)pyridin-3-yl)-1,2-oxaborolan-2-ol], for which the IC50 in the assay on IL-13 (Homo sapiens, PBMC) worked out at 757 nM; in assay [1] it was 1.21 nM; in the assay with IFNγ (Homo sapiens, PBMC), 23.8 nM; with IL-4 (Homo sapiens, PBMC) it was 24.4 nM.

In the case of `CCOc1c(OC)ccc(-c2cncc(C3COB(O)C3)c2)c1C(F)F` (single isomer, unassigned; (-)) [Example 10, (−) 4-(5-(2-(difluoromethyl)-3-ethoxy-4-methoxyphenyl)pyridin-3-yl)-1,2-oxaborolan-2-ol], the IC50 in the assay with IL-13 came out at 438 nM; in assay [1] it was 6.92 nM; in the assay on IFNγ, 1.62 nM; in the assay with IL-4, 2.39 nM.

Consider `CCOc1ccc(-c2cncc(C3COB(O)C3)c2)cc1OC` (single isomer, unassigned; enantiomer2) [Example 188, 4-(5-(4-ethoxy-3-methoxyphenyl)pyridin-3-yl)-1,2-oxaborolan-2-ol, enantiomer2], for which the IC50 in the assay with IL-13 (Homo sapiens, PBMC) amounted to 1530 nM; in assay [1], 12.5 nM; in the assay with IFNγ (Homo sapiens, PBMC), 12.2 nM; in the assay with IL-4 (Homo sapiens, PBMC) it was 135 nM.

On to `CCOc1c(OC)cc(F)c(-c2cncc(C3COB(O)C3)c2)c1F` (single isomer, unassigned; enantiomer 1) [Example 164, (−) 4-(5-(3-ethoxy-2,6-difluoro-4-methoxyphenyl)pyridin-3-yl)-1,2-oxaborolan-2-ol, enantiomer 1], for which the IC50 in the assay on IL-13 (Homo sapiens, PBMC) was 986 nM; in assay [1], 5.58 nM; in the assay with IFNγ (Homo sapiens, PBMC), 7.87 nM; in the assay on IL-4 (Homo sapiens, PBMC) it was 41.1 nM.

Consider `CCCOc1c(OC)ccc(-c2cncc(C3COB(O)C3)c2)c1OC` (single isomer, unassigned; enantiomer 1) [Example 168, (−) 4-(5-(2,4-dimethoxy-3-propoxphenyl)pyridin-3-yl)-1,2-oxaborolan-2-ol, enantiomer 1], for which the IC50 with IL-13 (Homo sapiens, PBMC) was 1260 nM; in assay [1], 0.88 nM; in the assay with IFNγ (Homo sapiens, PBMC) it was 0.64 nM; in the assay with IL-4 (Homo sapiens, PBMC), 1.17 nM.

Turning to `COc1ccc(-c2cncc(C3COB(O)C3)c2)cc1OC1CCSCC1` (single isomer, unassigned; enantiomer 1) [Example 170, 4-(5-(4-methoxy-3-((tetrahydro-2H-thiopyran-4-yl)oxy)phenyl)pyridin-3-yl)-1,2-oxaborolan-2-ol, enantiomer 1], the IC50 in the assay on IL-13 (Homo sapiens, PBMC) was 1070 nM; in assay [1], 3.78 nM; with IFNγ (Homo sapiens, PBMC), 2.83 nM; in the assay with IL-4 (Homo sapiens, PBMC), 48.5 nM.

For `CCCOc1cc(-c2cncc(C3COB(O)C3)c2)ncc1OC` (single isomer, unassigned; enantiomer 1) [Example 179, 4-(5-methoxy-4-propoxy-[2,3′-bipyridin]-5-yl)-1,2-oxaborolan-2-ol, enantiomer 1], the IC50 worked out at 2730 nM in the assay on IL-13 (Homo sapiens, PBMC); 0.98 nM in assay [1]; 0.74 nM with IFNγ (Homo sapiens, PBMC); 0.72 nM in the assay on IL-4 (Homo sapiens, PBMC).

`CCCOc1cc(-c2cc(C3COB(O)C3)cc(CO)n2)ccc1OC` (single isomer, unassigned; enantiomer 1) [Example 180, 4-(2-(hydroxymethyl)-6-(4-methoxy-3-propoxyphenyl)pyridin-4-yl)-1,2-oxaborolan-2-ol, enantiomer 1]: the IC50 in the assay on IL-13 (Homo sapiens, PBMC) was 1290 nM; in assay [1] it was 3.01 nM; in the assay on IFNγ (Homo sapiens, PBMC) it was 6.65 nM; in the assay on IL-4 (Homo sapiens, PBMC) it was 6.33 nM.

`COc1ccc(-c2cncc(C3COB(O)C3)c2)cc1OC1CC1` (single isomer, unassigned; enantiomer 1) [Example 193, 4-(5-(3-cyclopropoxy-4-methoxyphenyl)pyridin-3-yl)-1,2-oxaborolan-2-ol, enantiomer 1]: the IC50 was 1530 nM with IL-13, 0.63 nM in assay [1], 2.16 nM in the assay with IFNγ and 73.1 nM in the assay on IL-4.

For the molecule `CCOc1cc(-c2nc(C3COB(O)C3)cs2)ccc1OC` (single isomer, unassigned; enantiomer 1) [Example 194, (−) 4-(2-(3-ethoxy-4-methoxyphenyl)thiazol-4-yl)-1,2-oxaborolan-2-ol, enantiomer 1], the half-maximal inhibitory concentration (IC50) was 1540 nM in the assay with IL-13 (Homo sapiens, PBMC); 3.63 nM in assay [1]; 14.7 nM in the assay with IFNγ (Homo sapiens, PBMC); 2.85 nM in the assay with IL-4 (Homo sapiens, PBMC).

Take `CCCOc1cc(-c2nc(OCCO)cc(C3COB(O)C3)n2)ccc1OC` (single isomer, unassigned; enantiomer 1) [Example 196, (−) 4-(6-(2-hydroxyethoxy)-2-(4-methoxy-3-propoxyphenyl)pyrimidin-4-yl)-1,2-oxaborolan-2-ol, enantiomer 1]: the IC50 is 1540 nM with IL-13 (Homo sapiens, PBMC); 0.34 nM in assay [1]; 0.81 nM in the assay with IFNγ (Homo sapiens, PBMC); 0.29 nM in the assay on IL-4 (Homo sapiens, PBMC).

As for `CCOc1cc(-c2cccc(C3COB(O)C3)n2)ccc1SC` (single isomer, unassigned; enantiomer 1) [Example 204, 4-(6-(3-ethoxy-4-(methylthio)phenyl)pyridin-2-yl)-1,2-oxaborolan-2-ol, enantiomer 1], the IC50 in the assay with IL-13 (Homo sapiens, PBMC) amounted to 1710 nM; in assay [1] it was 6.07 nM; in the assay on IFNγ (Homo sapiens, PBMC) it was 21.8 nM; in the assay with IL-4 (Homo sapiens, PBMC) it was 22.7 nM.

Consider `CCOc1cc(-c2c(C)ncc(C3COB(O)C3)c2C)ccc1OC` (single isomer, unassigned; enantiomer 1) [Example 205, (+) 4-(5-(3-ethoxy-4-methoxyphenyl)-4,6-dimethylpyridin-3-yl)-1,2-oxaborolan-2-ol, enantiomer 1], for which the IC50 with IL-13 (Homo sapiens, PBMC) was 1770 nM; in assay [1] it was 0.52 nM; with IFNγ (Homo sapiens, PBMC), 1.09 nM; in the assay with IL-4 (Homo sapiens, PBMC), 1.06 nM.

For the molecule `CCCOc1c(OC)ccc(-c2cncc(C3COB(O)C3)n2)c1F` (single isomer, unassigned; enantiomer 1) [Example 216, 4-(6-(2-fluoro-4-methoxy-3-propoxyphenyl)pyrazin-2-yl)-1,2-oxaborolan-2-ol, enantiomer 1], the IC50 in the assay on IL-13 (Homo sapiens, PBMC) worked out at 2860 nM; in assay [1], 4.05 nM; with IFNγ (Homo sapiens, PBMC), 1.94 nM; in the assay on IL-4 (Homo sapiens, PBMC) it was 19.6 nM.

For `CCCOc1cc(-c2cc(C3COB(O)C3)cnc2C)cnc1OC` (single isomer, unassigned; enantiomer 1) [Example 219, (−) 4-(6′-methoxy-2-methyl-5′-propoxy-[3,3′-bipyridin]-5-yl)-1,2-oxaborolan-2-ol, enantiomer 1], the IC50 in the assay on IL-13 (Homo sapiens, PBMC) amounted to 2130 nM; in assay [1], 0.82 nM; in the assay on IFNγ (Homo sapiens, PBMC), 1.67 nM; in the assay with IL-4 (Homo sapiens, PBMC) it was 4.1 nM.

Turning to `CCOc1cc(C2COB(O)C2)nc(-c2ccc(OC)c(OCC)c2)n1` (single isomer, unassigned; enantiomer 1) [Example 223, 4-(6-ethoxy-2-(3-ethoxy-4-methoxyphenyl)pyrimidin-4-yl)-1,2-oxaborolan-2-ol, enantiomer 1], the 50% inhibitory concentration (IC50) came out at 2690 nM in the assay with IL-13 (Homo sapiens, PBMC); 6.67 nM in assay [1]; 22.5 nM in the assay with IFNγ (Homo sapiens, PBMC); 30.9 nM in the assay with IL-4 (Homo sapiens, PBMC).
